# Assay results reported in patent US20080269200A1, “Indole Derivatives and Use Thereof as Kinase Inhibitors in Particular Ikk2 Inhibitors” (SmithKline Beecham Corporation, priority 2004, published 2008).
# pIC50: −log10 of the molar value.
# Target: T1, Recombinant human IKK2 (residues 1-737) (Homo sapiens, UniProt O14920)
# T1 construct: Recombinant human IKK2 (residues 1-737) was expressed in baculovirus as a C-terminal GST-tagged fusion protein; GST (C); made in house
# T1 sequence (O14920 1-737): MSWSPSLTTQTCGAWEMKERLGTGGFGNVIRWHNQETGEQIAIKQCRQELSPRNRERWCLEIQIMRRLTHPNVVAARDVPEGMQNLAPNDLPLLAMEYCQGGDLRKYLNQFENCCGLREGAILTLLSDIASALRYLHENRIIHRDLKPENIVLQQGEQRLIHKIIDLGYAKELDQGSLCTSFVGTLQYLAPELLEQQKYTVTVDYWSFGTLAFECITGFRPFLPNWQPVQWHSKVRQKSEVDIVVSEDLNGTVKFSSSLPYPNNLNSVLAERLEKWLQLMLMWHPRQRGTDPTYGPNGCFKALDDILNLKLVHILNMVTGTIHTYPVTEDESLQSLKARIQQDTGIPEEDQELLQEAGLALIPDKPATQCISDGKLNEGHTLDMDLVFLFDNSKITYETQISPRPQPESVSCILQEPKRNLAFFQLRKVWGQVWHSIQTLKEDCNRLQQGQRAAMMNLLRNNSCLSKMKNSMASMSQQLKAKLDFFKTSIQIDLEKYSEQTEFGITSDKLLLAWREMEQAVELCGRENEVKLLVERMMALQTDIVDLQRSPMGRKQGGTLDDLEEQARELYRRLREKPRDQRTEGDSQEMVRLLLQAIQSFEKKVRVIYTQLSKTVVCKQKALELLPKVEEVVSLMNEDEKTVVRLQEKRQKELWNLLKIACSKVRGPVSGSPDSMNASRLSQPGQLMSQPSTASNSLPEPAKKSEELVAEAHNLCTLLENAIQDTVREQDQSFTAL
# Experiment: IKK2 Assay (TR-FRET)
# Type: biochemical
# Conditions: IKK2 5 nM, GST-IκBα substrate 25 nM, ATP 1 μM, 30 minutes at room temperature
# Procedure: Recombinant human IKK2 (residues 1-737) was expressed in baculovirus as a C-terminal GST-tagged fusion protein, and its activity was assessed using a time-resolved fluorescence resonance energy transfer (TR-FRET) assay. Briefly, IKK2 (5 nM final) diluted in assay buffer (50 mM HEPES, 10 mM MgCl2, 1 mM CHAPS pH 7.4 with 1 mM DTT and 0.01% w/v BSA) was added to wells containing various concentrations of compound or DMSO vehicle (3% final). The reaction was initiated by the addition of GST-IκBα substrate (25 nM final)/ATP (1 μM final), in a total volume of 30 μl. The reaction was incubated for 30 minutes at room temperature, then terminated by the addition of 15 μl of 50 mM EDTA. Detection reagent (15 μl) in buffer (100 mM HEPES pH 7.4, 150 mM NaCl and 0.1% w/v BSA) containing antiphosphoserine-IκBα-32/36 monoclonal antibody 12C2 (Cell Signalling Technology, Beverly Mass., USA) labelled with W-1024 europium chelate (Wallac O Y, Turku, Finland), and an APC-labelled anti-GST antibody (Prozyme, San Leandro, Calif., USA) was added and the reaction was further incubated for 60 minutes at room temperature. The degree of phosphorylation of GST-IκBα was measured using a Packard Discovery plate reader (Perkin-Elmer Life Sciences, Pangboume, UK) as a ratio of specific 665 nm energy transfer signal to reference europium 620 nm signal.
row,pIC50,SMILES
1,> 4.80,"NC(=O)c1cc(Br)cc2cc[nH]c12 [Intermediate 7, 5-bromo-1H-indole-7-carboxamide]"
2,> 4.80,"NC(=O)c1cc(-c2ccc(Cl)cc2)cc2cc[nH]c12 [Example 7, 5-(4-chlorophenyl)-1H-indole-7-carboxamide]"

row,SMILES,pIC50
1,"NC(=O)c1cc(Br)cc2c(C3CCNCC3)c[nH]c12 [Intermediate 30, 5-bromo-3-(4-piperidinyl)-1H-indole-7-carboxamide]",> 4.80
